According to patent US20130331345A1, “PUERARIN HYDRATES, PREPARATION METHODS AND USES THEREOF” (priority 2010, published 2013):

What was measured:
[1] = tested on: arrhythmia induced by aconitine; test: Effects on arrhythmia caused by aconitine in rats; format: in vivo, SD rats; conditions: 200 mg · kg^−1 intravenous, n = 10, p < 0.05 vs physiological saline, monohydrate
Protocol: 20 SD rats, male and female, body weight 185±19 g, randomly divided into 2 groups, separately administrated via intravenous injection with physiological saline, puerarin monohydrate (prepared by method of Example 1) (which was added with cosolvent to form an injectable solution) 200 mg·kg^−1. The rats were anesthetized with 3% pentobarbital sodium 40 mg·kg^−1, and fixed in supine position on operating table. The rats were subjected to injection via sublingual vein, after 6 min, subjected to intravenous injection of 0.0025% aconitine at a constant rate, 2 μg·min^−1 (0.08 ml·min^−1), the time of ventricular premature beat (VP), ventricular tachycardia (VT), ventricular fibrillation (VF) and cardiac arrest (CA) were recorded, and corresponding dosages were calculated.

ACE = target: T1, ACE (Rattus norvegicus, UniProt P47820); test: Effects on inhibiting ACE activity (rat blood serum after intraperitoneal injection); format: in vivo, Wistar rats
T1 construct: from tissue; host or cells: blood serum of Wistar rats
T1 sequence (P47820 36-1313): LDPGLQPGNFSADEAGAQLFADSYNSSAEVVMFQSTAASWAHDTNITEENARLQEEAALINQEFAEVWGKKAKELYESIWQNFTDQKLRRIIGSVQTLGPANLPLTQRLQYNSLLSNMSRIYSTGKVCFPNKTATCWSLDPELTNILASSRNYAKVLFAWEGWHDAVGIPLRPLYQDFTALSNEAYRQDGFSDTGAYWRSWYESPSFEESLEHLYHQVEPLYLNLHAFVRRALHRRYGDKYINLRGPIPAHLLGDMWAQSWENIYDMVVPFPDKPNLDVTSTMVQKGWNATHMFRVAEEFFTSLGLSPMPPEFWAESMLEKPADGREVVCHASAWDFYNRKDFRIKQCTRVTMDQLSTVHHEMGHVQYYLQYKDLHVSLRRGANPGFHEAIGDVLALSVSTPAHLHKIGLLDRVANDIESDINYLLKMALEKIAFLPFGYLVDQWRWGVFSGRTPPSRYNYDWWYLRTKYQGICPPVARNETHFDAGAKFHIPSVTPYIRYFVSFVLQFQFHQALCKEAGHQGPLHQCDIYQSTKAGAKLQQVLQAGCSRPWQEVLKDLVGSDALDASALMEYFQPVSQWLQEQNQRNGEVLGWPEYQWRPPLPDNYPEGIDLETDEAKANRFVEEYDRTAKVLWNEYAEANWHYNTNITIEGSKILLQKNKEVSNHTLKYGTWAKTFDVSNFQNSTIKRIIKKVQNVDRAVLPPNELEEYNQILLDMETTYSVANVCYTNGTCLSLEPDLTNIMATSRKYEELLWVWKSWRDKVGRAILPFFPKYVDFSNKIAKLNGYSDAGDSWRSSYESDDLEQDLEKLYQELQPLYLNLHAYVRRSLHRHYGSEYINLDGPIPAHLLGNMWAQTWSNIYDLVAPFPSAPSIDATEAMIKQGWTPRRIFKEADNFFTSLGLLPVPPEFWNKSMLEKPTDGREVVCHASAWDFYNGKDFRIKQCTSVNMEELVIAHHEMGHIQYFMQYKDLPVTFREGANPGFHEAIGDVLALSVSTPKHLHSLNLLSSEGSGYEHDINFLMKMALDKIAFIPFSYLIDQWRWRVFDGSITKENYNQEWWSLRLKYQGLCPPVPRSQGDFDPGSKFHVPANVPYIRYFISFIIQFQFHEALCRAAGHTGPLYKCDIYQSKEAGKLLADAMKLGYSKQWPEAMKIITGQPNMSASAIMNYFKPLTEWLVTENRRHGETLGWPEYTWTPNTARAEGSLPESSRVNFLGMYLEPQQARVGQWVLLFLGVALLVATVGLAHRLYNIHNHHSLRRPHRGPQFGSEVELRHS
Protocol: 24 Wistar rats, 280-300 g, were randomly divided into 3 groups, 8 rats per group, one group was control group, other two groups were separately 100 mg/kg, 200 mg/kg dose groups (which was added with cosolvent to form an injectable solution), subjected to intraperitoneal injection, the control group was administered with physiological saline. 60 min after administration, the rats were anesthetized with 1% pentobarbital sodium, subjected to thoracotomy and blood sample was taken from heart, the blood sample stood at room temperature for 30 min, centrifuged under 3500 r/min at low temperature for 10 min, the supernatant was taken and stored at about −65° C., for test. Measurement of ACE activity: referring to document [WANG, Fumin, et al, Chinese Journal of Laboratory Medicine, 1983, 6(3):145-151], the results were subjected to statistical treatment: the results were expressed in x±S, and data were subjected to analysis of variance and t-test.

## O=c1c(-c2ccc(O)cc2)coc2c([C@@H]3O[C@H](CO)[C@@H](O)[C@H](O)[C@H]3O)c(O)ccc12 [Sample 1, puerarin monohydrate]
[1]; listed as PW
  Dose of aconitine causing cardiac arrest (CA): 0.0951 ± 0.0086 mg/kg
  Dose of aconitine causing ventricular fibrillation (VF): 0.0635 ± 0.0077 mg/kg
  Dose of aconitine causing ventricular premature beat (VP): 0.0331 ± 0.0073 mg/kg
  Dose of aconitine causing ventricular tachycardia (VT): 0.0449 ± 0.0072 mg/kg
[1]
  Dose of aconitine causing cardiac arrest (CA): significantly increased
  Dose of aconitine causing ventricular fibrillation (VF): significantly increased
  Dose of aconitine causing ventricular premature beat (VP): significantly increased
  Dose of aconitine causing ventricular tachycardia (VT): significantly increased
ACE; 100 and 200 mg/kg intraperitoneal, P<0.01
  rat blood serum ACE activity compared with the control group: dose-dependent decrease
ACE; rat, ip, rats, 100 mg/kg intraperitoneal, vs control group, read-out: inhibition rate (%)
  inhibition at 100 mg/kg: 36.1%
ACE; rats, 100 mg/kg intraperitoneal, blood taken 60 min after administration
  ACE (IU): 34.8 ± 6.19 IU
